Data as given in paper PMC8588420 (Molecules, 2021).

Key:
[1] = RP-TLC chromatographic lipophilicity parameter (RMW); format: physicochemical; conditions: RP2, RP18, RP18W plates; methanol-water, propan-1-ol-water, acetonitrile-water
Protocol: (§1) The lipophilicity study was performed on chromatographic plates for RP-TLC and NP-TLC analysis purchased from Merck (Darmstadt, Germany): silica gel RP18F254 (aluminum plates, No. 1.05559), silica gel RP2F254 (glass plates, No. 1.05747), and RP18WF254 (glass plates, No. 1.13142) were applied as stationary phases in the reversed-phase system. In the case of the NP-TLC system, aluminum chromatographic plates precoated with silica gel 60F254 without (No. 1.05554) and with a concentrating zone (No. 1.05583), glass plates precoated with silica gel 60CNF254 (No. 1.16464), and aluminum plates coated with the mixture of silica gel 60 and Kieselguhr F254 were tested (No. 1.05567).
The lipophilicity studies of the tested compounds were carried out on chromatographic plates 10 cm × 10 cm developed using mobile phases (50 mL) prepared by mixing the respective amounts of the organic modifier (methanol/acetonitrile/propan-1-ol/acetone) and water. In the case of NP-TLC analysis, the addition of 2.4% glacial acetic acid in the mobile phase methanol-water was used. […] The average value of RF (retardation factor) was determined in every case.
(§2) In this study, the chromatographic lipophilicity parameters of both studied compounds were calculated based on the retardation factor (RF) obtained for metformin and phenformin in each mobile phase and chromatographic plates used as the stationary phase. […]

[2] = NP-TLC chromatographic lipophilicity parameter (RMW); format: physicochemical; conditions: for RMW range over NP-TLC plates: four chromatographic plates; for RMW: NP-TLC
Protocol: as §1
The lipophilicity studies of the tested compounds were carried out on chromatographic plates 10 cm × 10 cm developed using mobile phases (50 mL) prepared by mixing the respective amounts of the organic modifier (methanol/acetonitrile/propan-1-ol/acetone) and water. In the case of NP-TLC analysis, the addition of 2.4% glacial acetic acid in the mobile phase methanol-water was used. The organic modifier concentrations (volume fraction, v/v) varied in a range from 0.40 to 0.90 in constant steps of 0.10. […] Chromatography was performed in a classical developing chamber, which was previously saturated with mobile phase vapors for 20 min. The migration distance was 7.0 cm. After the development, the plates were dried at room temperature (20 ± 1 °C) and visualized in UV light (λ = 254 nm) as the maximum wavelength for both biguanides. All analyses were repeated in triplicate. The average value of RF (retardation factor) was determined in every case.
as §2
Then, a linear correlation between the RM of the tested compounds and the volume ratio of the organic solvent in the mobile phase was performed for every chromatographic plate. The extrapolation of calculated RM values to the zero concentration of the organic modifier (i.e., to pure water) in accordance with Soczewiński-Wachtmeister’s Equation (2) allowed determining a valuable chromatographic parameter of lipophilicity expressed as RMW [1]. RM = RMW − S⋅φ(2) where RMW is the chromatographic parameter obtained using Soczewiński–Wachtmeister’s Equation (2), S is the regression slope, and φ is the volume fraction of the organic modifier (e.g., methanol, propan-1-ol, acetonitrile, acetone) in the mobile phase composition. Statistica v. 13.3 software (StatSoft, Kraków, Poland) was used to determine the parameters of these linear relationships.

[3] = n-octanol-water, literature value ref 46; cited from earlier work

| RMW range over RP-TLC systems [1] | RMW range over NP-TLC plates ([2]; acetone-water) | RMW range over NP-TLC plates ([2]; methanol-water-acetic acid) | RMW ([2]; Silica gel 60F254, acetone-water) | RMW ([2]; Silica gel 60F254 with concentrating zone, methanol-water-acetic acid) | Compound | logPow [3] |
| --- | --- | --- | --- | --- | --- | --- |
| −4.877 to 0.960 | −4.127 to 1.242 | −6.657 to 0.833 | – | – | CN(C)C(=N)N=C(N)N [Metformin, dimethylbiguanide] | – |
| 0.142 to 0.728 | −4.383–0.790 | −1.983–6.170 | -4.383 | -1.983 | [H]/N=C(/N)N/C(=N/[H])NCCc1ccccc1 [Phenformin] | −0.83 |
